Legend:
Hdh^CAG/+ mice = experiment: Post-mortem synapse density (adjacent PSD95 and Vglut-1 spots) after 28 days of treatment; type: in vivo, mouse
From the text: We note that there is a significant reduction in this number of adjacent spots in untreated Hdh^CAG/+ mice.

StHdh^Q111/Q111 cells = experiment: RUSH system: GPI-SBP-mCherry trafficking from endoplasmic reticulum to Golgi and plasma membrane; type: cell-based, mouse; settings: StHdh^Q111/Q111 cells treated 1 hour with 10 μM
Method: The RUSH plasmid (Boncompain et al., 2012) is a bicistronic plasmid (SEQ ID NO: 2) allowing the expression of two parts of the system: the reticulum-specific anchor (KDEL-streptavidin), and the reporter part (GPI-SBP-mCh). The addition of biotin in the extracellular medium (40 μM) induces the unhooking of the reporter part of the anchor, thus allowing to follow the intracellular trafficking in a synchronized way within a cell population from the endoplasmic reticulum.
For striatal StHdh cells, acute treatment was performed at 10 μM for 1 hour before and during the acquisition time. For neurons within the microchambers, treatments were started at DIV2 until DIV12 every day at 1 μM in each compartment of the microfluidic device.
The inventors used the Retention Using Selective Hooks (RUSH) system to study intracellular dynamics from the ER to the plasma membrane in Huntington's disease condition (FIG. 1A). RUSH allows tracking the synchronous release of a reporter molecule from specific intracellular compartments. In the present experiment, the inventors followed the release of glycosylphosphatidylinositol (GPI)-anchored fluorescence protein mCherry, and fused to streptavidin-binding peptide (SBP) that was retained into the ER compartment by the interaction with a “hook” protein composed of the KDEL motif fused to streptavidin. In the absence of biotin, the GPI-SBP-mCherry localizes at the ER (FIG. 1A). Addition of biotin to the cells expressing GPI-SBP-mCherry and KDEL-streptavidin causes a synchronous release of the GPI-SBP-mCherry reporter from the hook which then migrates to the Golgi apparatus and later to the plasma membrane.
To study these dynamics in the context of Huntington's disease, the inventors transfected the GPI-SBP-mCherry-KDEL-streptavidin construct as shown in SEQ ID NO:2 into immortalized striatal cells from Hdh^Q111/Q111 and Hdh^Q7/Q7 mice, referred to as StHdh^Q111/Q111 and StHdh^Q7/Q7 cells respectively. They then monitored GPI-SBP-mCherry trafficking by real-time imaging for 90 minutes. To assess intracellular trafficking dynamics, they quantified the kinetics of appearance and disappearance of mCherry fluorescence in the Golgi apparatus over time (FIGS. 1B and C). Shortly after biotin addition, GPI leaves the ER and moves to the Golgi apparatus. The inventors quantified fluorescence at the Golgi and observed that in StHdh^Q7/Q7 cells, the peak fluorescence was at 16.6 minutes, whereas it was delayed to 23.6 minutes in StHdh^Q111/Q111 cells (FIG. 1B). Their observations indicate a reduced trafficking of GPI from the ER to the Golgi apparatus as well as prolonged retention of GPI in the Golgi as evidenced by a longer period of GPI fluorescence in the Golgi apparatus.

Hdh^CAG140/+ mice [1] = experiment: Rotarod test; type: in vivo, mouse; settings: Hdh^CAG/+ mice
Method: (§1) Mice littermates were grouped into mixed treatment groups. Males and females were 6 months of age at the beginning of the treatment. For each specific test, all experimental groups were tested on the same day, during the light phase and between Days 16 and 28 of treatment. Prior to testing, mice were acclimatized to the test room for a period of 30 minutes. Treatments were randomly assigned and behavioral tests were performed 12 days before the end of the delivery of the treatment. […] Mice were excluded from analysis if their performance was calculated as a significant outlier by the Grubb test. One mouse was excluded based on these criteria. Mouse weights were measured prior to the start of treatment and until the end of testing.
The Rotarod apparatus was used to measure motor coordination and balance. Rotarod test was performed over 6 consecutive days, with 3 days of accelerated rotarod and then 3 days of fixed rotarod. […] The latency and speed at which mice fall off from the rotarod were measured up to 300 sec. For a fixed rotarod, mice were evaluated for 3 trials at 10, 15, and 20 rpm on days 4, 5, and 6, respectively. […] Data are expressed as the average of the 3 trials.

Hdh^CAG140/+ mice [2] = experiment: Novelty-Suppressed Feeding test; type: in vivo, mouse; settings: Hdh^CAG/+ mice, 0.3 mg/kg/day subcutaneous infusion
Method: as §1
The test was performed as in Pla et al., 2013. Animals were food-deprived during 24 hours to increase motivation to consume food. On the day of testing, mice were placed within the testing apparatus, which consisted of a plastic box (50 cm×30 cm×15 cm), the floor of which covered with wooden bedding. Mice were videorecorded and allowed to freely explore the area until they eat the food pellet or for a maximum of 10 minutes. The mice were considered to eat the pellet when they bite the pellet while sitting comfortably.

SMILES: O=C(CN1CCN(C(=O)c2ccco2)CC1)Nc1cc(C(F)(F)F)ccc1Cl [ML-348]
- synaptic density, number of PSD95 and Vglut-1 adjacent dots per 100 μm^2 (Hdh^CAG/+ mice): restores synaptic density to a level approximately equal to that of untreated wild-type mice
- time after biotin addition for the appearance of the fluorescence peak in the Golgi (StHdh^Q111/Q111 cells; without treatment 23.2-23.3 min, StHdh^Q7/Q7 16.6 min): 18.9 min
- time for fluorescence to leave the Golgi apparatus (retention time in the Golgi) (StHdh^Q111/Q111 cells; without treatment 24-25.4 min, wild-type cells 15.1 min): 15.1 min
- average speed achieved on accelerated rotarod (Hdh^CAG140/+ mice [1]; 4 to 40 rpm in 600, 300, 120 s, statistically significant in the 300 s condition): recover motor coordination close to that of wild-type mice
- performance on fixed speed rotarod (Hdh^CAG140/+ mice [1]; constant speed 10 and 15 rpm): significantly improved the performances
- latency to feeding in a new environment (Hdh^CAG140/+ mice [2]): restores the behavior of Hdh^CAG/+ mice to that of wild-type mice

Reference: patent US12551479B2, “Acyl-protein thioesterase inhibitor for the treatment and/or prevention of Huntington's disease” (UNIVERSITÉ GRENOBLE ALPES, priority 2019, dated 2026)
